Measured values published in US20040248964A1, “Analgesic uses of norketamine and ketamine/norketamine prodrugs” (priority 2002, published 2004).

Key:
[1] = cited from earlier work
[2] = Norketamine i.v. drip in a patient with intractable bladder pain, pain level subjectively evaluated by the patient; assay type: in vivo, human
Method: A patient, weighing approximately 60 kg, presents with intractable bladder pain (interstitial ceptitis), which has been diagnosed previously. Pain management in this patient consists of 100 mg Demoral every 3 hours; Dilaudid 2-4 mg every 4 hours; Dalmane 30 mg per day; Duralgesic patches (fentanyl transdermal patches); bladder washes with Pyridium (phenaropyridine HCl), which is a urinary tract analgesic; and belladonna and opiate suppositories. In addition to the pain medication, the patient takes Zanax and Tagamet to alleviate gastric distress, and Compazine (an anti-emetic) to counteract nausea. Gastric distress and nausea in this patient result from the pain medication.
Despite the dosages and range of pain medications used by this patient, satisfactory pain management is not achieved.
A diagnostic pre-sacral, or ilio-hypogastric, nerve block is performed on this patient to alleviate the pain. Unfortunately, the effect of the block is temporary, and the block is associated with significant motor weakness. After the block wears off, the patient states that they are unable to function, as the most mundane activities are exhausting.
Norketamine (10 mg/cc) drip was administered i.v. over one hour, for a total dose of 40 mg norketamine. […] About 1 hour after norketamine infusion is discontinued, the patient reports that the level of pain has increased to about #15, and thereafter rapidly to its previous level. The patient continues to take the other pain medications without effect.

NMDA receptor = conditions: cited from earlier work
[3] = Nasal spray self-administration of norketamine in the same patient
rats = conditions: intravenously or intraspinally; cited from earlier work

CCOC(=O)NC1(c2ccccc2Cl)CCCCC1=O (stereo not drawn)
melting point: 112 to 114 °C

CN[C@]1(c2ccccc2Cl)CCCCC1=O [S-ketamine, reference compound]
potency relative to R-ketamine ([1]; in vivo): twice as potent

NC1(c2ccccc2Cl)CCCCC1=O (stereo not drawn) [Norketamine, 2-(2-chlorophenyl)-2-amino-cyclohexanone]
reduction of the pain level by a factor ([2]; 10 mg/cc drip i.v. over one hour, total dose 40 mg, from #20, subjectively evaluated by the patient): 2
pain level about 1 hour after norketamine infusion is discontinued ([2]; thereafter rapidly to its previous level): ~15
pain level after norketamine infusion ([2]; total dose 40 mg i.v. over one hour, level before #20): 10-12
binding to the NMDA receptor compared with S- or R-ketamine (NMDA receptor): less tightly
anesthetic and analgesic potency relative to ketamine ([1]; speculated): one third
control of breakthrough pain ([3]; nasal administration): particularly effective
pain management with nasal administration ([3]; nasal spray 100 mg/ml, 16 mg per spray, 1-2 sprays for severe pain): remarkable pain management
adverse sequelae compared with an equal dose of ketamine (rats): fewer of the adverse sequelae

CCCCOC(=O)NC1(c2ccccc2Cl)CCCCC1=O (stereo not drawn)
melting point: 130 to 132 °C

CC(C)OC(=O)NC1(c2ccccc2Cl)CCCCC1=O (stereo not drawn)
melting point: 124 to 126 °C
